Like-named read-outs stand apart in the source and are kept apart here.
Assays:
HepG2 cell = test: Cellular lipid-lowering level detection (oleic acid-induced cellular hyperlipidemia model, triglyceride content); assay type: cell-based, human; settings: HepG2 cells, drug treatment 24 h
Experimental: The lipid-lowering ability at the cellular level was confirmed by detecting triglyceride levels of hyperlipidemia cells to determine whether the compounds have the ability to improve hyperlipidemia at the cellular level (J. Med. Chem. 2021, 64(5), 2815-2828). This experiment adopted a human liver cancer cell, HepG2 cell. After a cellular hyperlipidemia model was induced by oleic acid, the cells were incubated and treated with a drug for 24 h. Then, the cells were lysed by ultrasonication, and the content of triglyceride was detected according to the instructions of a triglyceride kit.

FIH = FIH (Homo sapiens (Human), UniProt Q9NWT6); test: Inhibitory activities of compounds on FIH, fluorescence polarization (FP assay); assay type: binding
FIH, sequence (Q9NWT6 whole entry): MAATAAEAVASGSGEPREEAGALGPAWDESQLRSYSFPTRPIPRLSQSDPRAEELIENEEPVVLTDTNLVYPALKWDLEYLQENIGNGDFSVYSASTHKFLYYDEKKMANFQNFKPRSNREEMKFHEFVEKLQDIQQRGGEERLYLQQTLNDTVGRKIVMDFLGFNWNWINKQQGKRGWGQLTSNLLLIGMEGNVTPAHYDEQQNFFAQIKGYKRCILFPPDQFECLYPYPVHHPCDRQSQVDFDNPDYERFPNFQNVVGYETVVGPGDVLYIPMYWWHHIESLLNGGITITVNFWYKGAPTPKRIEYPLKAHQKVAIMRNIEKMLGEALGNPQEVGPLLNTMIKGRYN
Experimental: The compounds were serially diluted in an assay buffer to 12 concentration gradients, and then 20 μL of diluted 300 nM FIH protein was added to each well. […] The plate was incubated at room temperature for 1 h and scanned with a Synergy plate reader. The excitation wavelength was set to 485 nm, and the emission wavelength was set to 535 nm. […] The obtained data were imported into Graphpad prism 8.0 for analysis and fit to obtain IC50 values.

[1] = FP competition with FITC-HIF-1α 788-822, Table 1, read-out: FIH IC50
[2] = Table 2, comparison compounds, read-out: FIH (IC50 nM), compound where position 5 of pyridine is linked to other structures

Row | SMILES | Whether or not it can improve cellular hyperlipidemia (HepG2 cell) | IC50 (FIH; [1]) [nM] | IC50 (FIH; [2]) [nM]
1 | O=C(O)CNC(=O)c1ncc(-c2cccc(Cl)c2)cc1O [AKB-6548, reference compound] | No | – | –
2 | O=C(O)CNC(=O)c1ncc(-c2cc(-c3ccccc3)no2)cc1O [Compound I-1, 3-Hydroxy-5-(3-phenylisoxazol-5-yl)picolinoyl glycine] | Yes | – | –
3 | Cc1cccc(-c2cc(-c3cnc(C(=O)NCC(=O)O)c(O)c3)on2)c1 [Compound I-2, 3-Hydroxy-5-(3-m-tolylisoxazol-5-yl)picolinoyl glycine] | Yes | – | –
4 | O=C(O)CNC(=O)c1ncc(-c2cc(-c3ccc(-c4ccccc4)cc3)no2)cc1O [Compound I-3, 3-Hydroxy-5-(3-biphenylisoxazol-5-yl)picolinoyl glycine] | Yes | – | –
5 | COc1cccc(-c2cc(-c3cnc(C(=O)NCC(=O)O)c(O)c3)on2)c1 [Compound I-4, 3-Hydroxy-5-(3-m-methoxyphenylisoxazol-5-yl)picolinoyl glycine] | Yes | – | –
6 | O=C(O)CNC(=O)c1ncc(-c2cc(-c3cccc(Cl)c3)no2)cc1O [Compound I-5, 3-Hydroxy-5-(3-m-chlorophenylisoxazol-5-yl)picolinoyl glycine] | Yes | – | –
7 | O=C(O)CNC(=O)c1ncc(-c2cc(-c3cccc(Br)c3)no2)cc1O [Compound I-6, 3-Hydroxy-5-(3-m-bromophenylisoxazol-5-yl)picolinoyl glycine] | Yes | – | –
8 | O=C(O)CNC(=O)c1ncc(-c2cc(C3CCCCC3)no2)cc1O [Compound I-7, 3-Hydroxy-5-(3-cyclohexylisoxazol-5-yl)picolinoyl glycine] | Yes | – | –
9 | O=C(O)CNC(=O)c1ncc(-c2cc(C3CC3)no2)cc1O [Compound I-8, 3-Hydroxy-5-(3-cyclopropylisoxazol-5-yl)picolinoyl glycine] | Yes | – | –
10 | N#Cc1cccc(-c2cc(-c3cnc(C(=O)NCC(=O)O)c(O)c3)on2)c1 [Compound I-9, 3-Hydroxy-5-(3-m-cyanophenylisoxazol-5-yl)picolinoyl glycine] | Yes | – | –
11 | O=C(O)CNC(=O)c1ncc(-c2cc(-c3cccc(C(F)(F)F)c3)no2)cc1O [Compound I-10, 3-Hydroxy-5-(3-m-trifluoromethylphenylisoxazol-5-yl)picolinoyl glycine] | Yes | – | –
12 | O=C(O)CNC(=O)c1ncc(-c2cc(-c3cccc4ccccc34)no2)cc1O [Compound I-11, 3-Hydroxy-5-(3-(naphthyl-1-yl)isoxazol-5-yl)picolinoyl glycine] | Yes | – | –
13 | O=C(O)CNC(=O)c1ncc(-c2cc(-c3ccc4ccccc4c3)no2)cc1O [Compound I-12, 3-Hydroxy-5-(3-(naphthyl-2-yl)isoxazol-5-yl)picolinoyl glycine] | Yes | – | –
14 | Cc1ccccc1-c1cc(-c2cnc(C(=O)NCC(=O)O)c(O)c2)on1 [Compound I-13, 3-Hydroxy-5-(3-o-tolylisoxazol-5-yl)picolinoyl glycine] | Yes | – | –
15 | Cc1ccc(-c2cc(-c3cnc(C(=O)NCC(=O)O)c(O)c3)on2)cc1 [Compound I-14, 3-Hydroxy-5-(3-p-tolylisoxazol-5-yl)picolinoyl glycine] | Yes | – | –
16 | Cc1cc(C)cc(-c2cc(-c3cnc(C(=O)NCC(=O)O)c(O)c3)on2)c1 [Compound I-15, 3-Hydroxy-5-(3-m-dimethylphenylisoxazol-5-yl)picolinoyl glycine] | Yes | – | –
17 | O=C(O)CNC(=O)c1ncc(-c2cc(-c3cccc(F)c3)no2)cc1O [Compound I-16, 3-Hydroxy-5-(3-m-fluorophenylisoxazol-5-yl)picolinoyl glycine] | Yes | – | –
18 | O=C(O)CNC(=O)c1ncc(-c2cc(-c3ccccc3Cl)no2)cc1O [Compound I-17, 3-Hydroxy-5-(3-o-chlorophenylisoxazol-5-yl)picolinoyl glycine] | Yes | – | –
19 | O=C(O)CNC(=O)c1ncc(-c2cc(-c3ccc(Cl)cc3)no2)cc1O [Compound I-18, 3-Hydroxy-5-(3-p-chlorophenylisoxazol-5-yl)picolinoyl glycine] | Yes | – | –

Row | SMILES | Whether or not it can improve cellular hyperlipidemia (HepG2 cell) | IC50 (FIH; [1]) [nM] | IC50 (FIH; [2]) [nM]
20 | O=C(O)CNC(=O)c1ncc(-c2cc(-c3cc(Cl)cc(Cl)c3)no2)cc1O [Compound I-19, 3-Hydroxy-5-(3-m-dichlorophenylisoxazol-5-yl)picolinoyl glycine] | Yes | – | –
21 | O=C(O)CNC(=O)c1ncc(-c2cc(-c3ccccc3Br)no2)cc1O [Compound I-20, 3-Hydroxy-5-(3-o-bromophenylisoxazol-5-yl)picolinoyl glycine] | Yes | – | –
22 | O=C(O)CNC(=O)c1ncc(-c2cc(-c3ccc(Br)cc3)no2)cc1O [Compound I-21, 3-Hydroxy-5-(3-p-bromophenylisoxazol-5-yl)picolinoyl glycine] | Yes | – | –
23 | O=C(O)CNC(=O)c1ncc(-c2cc(-c3ccccc3C(F)(F)F)no2)cc1O [Compound I-22, 3-Hydroxy-5-(3-o-trifluoromethylphenylisoxazol-5-yl)picolinoyl glycine] | Yes | – | –
24 | O=C(O)CNC(=O)c1ncc(-c2cc(-c3ccc(C(F)(F)F)cc3)no2)cc1O [Compound I-23, 3-Hydroxy-5-(3-p-trifluoromethylphenylisoxazol-5-yl)picolinoyl glycine] | Yes | – | –
25 | O=C(O)CNC(=O)c1ncc(-c2cc(-c3ccccc3F)no2)cc1O [Compound I-24, 3-Hydroxy-5-(3-o-fluorophenylisoxazol-5-yl)picolinoyl glycine] | Yes | 799 ± 8.6 | –
26 | O=C(O)CNC(=O)c1ncc(-c2cc(-c3ccc(F)cc3)no2)cc1O [Compound I-25, 3-Hydroxy-5-(3-p-fluorophenylisoxazol-5-yl)picolinoyl glycine] | Yes | 540 ± 1.8 | –
27 | O=C(O)CNC(=O)c1ncc(-c2cc(-c3cc(F)cc(F)c3)no2)cc1O [Compound I-26, 3-Hydroxy-5-(3-m-difluorophenylisoxazol-5-yl)picolinoyl glycine] | Yes | – | –
28 | CC(C)(C)c1cccc(-c2cc(-c3cnc(C(=O)NCC(=O)O)c(O)c3)on2)c1 [Compound I-27, 3-Hydroxy-5-(3-m-tert-butylphenylisoxazol 5-yl)picolinoyl glycine] | Yes | 782 ± 9.6 | –
29 | Cc1nc(C(=O)NCC(=O)O)c(O)cc1-c1cc(-c2ccccc2)no1 [Compound I-28, 3-Hydroxy-5-(3-phenylisoxazol-5-yl)-6-methylpicolinoyl glycine] | Yes | 991 ± 12.3 | –
30 | Cc1c(-c2ccccc2)noc1-c1cnc(C(=O)NCC(=O)O)c(O)c1 [Compound I-29, 3-Hydroxy-5-(4-methyl-3-phenylisoxazol-5-yl)picolinoyl glycine] | Yes | 1010 ± 25.1 | –
31 | CC(C)(C)c1c(-c2ccccc2)noc1-c1cnc(C(=O)NCC(=O)O)c(O)c1 [Compound I-30, 3-Hydroxy-5-(4-tert-butyl-3-phenylisoxazol-5-yl)picolinoyl glycine] | Yes | 1210 ± 22.9 | –
32 | O=C(O)CNC(=O)c1ncc(-c2onc(-c3ccccc3)c2C2CC2)cc1O [Compound I-31, 3-Hydroxy-5-(4-cyclopropyl-3-phenylisoxazol-5-yl)picolinoyl glycine] | Yes | 1920 ± 14.5 | –
33 | O=C(O)CNC(=O)c1ncc(-c2onc(-c3ccccc3)c2C2CCCCC2)cc1O [Compound I-32, 3-Hydroxy-5-(4-cyclohexyl-3-phenylisoxazol-5-yl) picolinoyl glycine] | Yes | 998 ± 10.9 | –
34 | O=C(O)CNC(=O)c1ncc(-c2onc(-c3ccccc3)c2-c2ccccc2)cc1O [Compound I-33, 3-Hydroxy-5-(3,4-diphenylisoxazol-5-yl)picolinoyl glycine] | Yes | 787 ± 9.5 | –
35 | O=C(O)CNC(=O)c1ncc(-c2cn(-c3ccccc3)nn2)cc1O [reference compound] | – | – | 19590 ± 43.8
36 | O=C(O)CNC(=O)c1ncc(-c2cc(-c3ccccc3)co2)cc1O [reference compound] | – | – | 9024 ± 36.1
37 | O=C(O)CNC(=O)c1ncc(-c2cc(-c3ccccc3)n[nH]2)cc1O [reference compound] | – | – | 22250 ± 56.3

Source: patent US20240376089A1, “3-HYDROXY-5-(ISOXAZOL-5-YL) PYRIDINE FORMYLGLYCINE COMPOUNDS, PREPARATION METHOD, PHARMACEUTICAL COMPOSITION AND USE” (CHINA PHARMACEUTICAL UNIVERSITY, priority 2022, published 2024)
